Data as given in ChEMBL document CHEMBL3421628, “Discovery of Intestinal Targeted TGR5 Agonists for the Treatment of Type 2 Diabetes” (J Med Chem, 2015).
Values belong to the compound of their own block, whether it stands above or below them.

Key:
in vitro [1] = conditions: human, Caco-2
in vitro [2] = conditions: human, Caco-2; remark: listed apart in the source
in vitro [3] = conditions: human, Caco-2; remark: listed apart in the source
in vitro [4] = conditions: human, Caco-2; remark: listed apart in the source
Rattus norvegicus [5] = assay: Half life in Sprague-Dawley rat assessed as 3-(2,5-Dichloro-4-((3-(4-cyclopropyl-1,2,3,4-tetrahydroquinoxaline-1-carbonyl)pyridin-4-yl)oxy)phenyl)propanoic acid level at 5 mg/kg, po by LC-MS/MS method; assay type: ADME, organism-based; set-up: dose 5 mg/kg, route oral; conditions: in vivo
Rattus norvegicus [6] = assay: Cmax in Sprague-Dawley rat assessed as 3-(2,5-Dichloro-4-((3-(4-cyclopropyl-1,2,3,4-tetrahydroquinoxaline-1-carbonyl)pyridin-4-yl)oxy)phenyl)propanoic acid level at 5 mg/kg, po by LC-MS/MS method; assay type: ADME, organism-based; set-up: dose 5 mg/kg, route oral; conditions: in vivo
Rattus norvegicus [7] = assay: AUC (0 to t) in Sprague-Dawley rat assessed as 3-(2,5-Dichloro-4-((3-(4-cyclopropyl-1,2,3,4-tetrahydroquinoxaline-1-carbonyl)pyridin-4-yl)oxy)phenyl)propanoic acid level at 5 mg/kg, po by LC-MS/MS method; assay type: ADME, organism-based, Plasma; set-up: dose 5 mg/kg, route oral; conditions: in vivo
[8] = Half life in Sprague-Dawley rat at 5 mg/kg, po by LC-MS/MS method; assay type: ADME, organism-based; set-up: dose 5 mg/kg, route oral; conditions: in vivo
Rattus norvegicus [9] = assay: Mean residence time in Sprague-Dawley rat assessed as 3-(2,5-Dichloro-4-((3-(4-cyclopropyl-1,2,3,4-tetrahydroquinoxaline-1-carbonyl)pyridin-4-yl)oxy)phenyl)propanoic acid level at 5 mg/kg, po by LC-MS/MS method; assay type: ADME, organism-based; set-up: dose 5 mg/kg, route oral; conditions: in vivo
[10] = Cmax in Sprague-Dawley rat at 5 mg/kg, po by LC-MS/MS method; assay type: ADME, organism-based; set-up: dose 5 mg/kg, route oral; conditions: in vivo
[11] = AUC (0 to infinity) in Sprague-Dawley rat at 5 mg/kg, po by LC-MS/MS method; assay type: ADME, organism-based; set-up: time infinity, dose 5 mg/kg, route oral; conditions: plasma
[12] = Mean residence time in Sprague-Dawley rat at 5 mg/kg, po by LC-MS/MS method; assay type: ADME, organism-based; set-up: dose 5 mg/kg, route oral; conditions: in vivo
[13] = AUC (0 to t) in Sprague-Dawley rat at 5 mg/kg, po by LC-MS/MS method; assay type: ADME, organism-based; set-up: dose 5 mg/kg, route oral; conditions: plasma
Rattus norvegicus [14] = assay: Tmax in Sprague-Dawley rat assessed as 3-(2,5-Dichloro-4-((3-(4-cyclopropyl-1,2,3,4-tetrahydroquinoxaline-1-carbonyl)pyridin-4-yl)oxy)phenyl)propanoic acid level at 5 mg/kg, po by LC-MS/MS method; assay type: ADME, organism-based; set-up: dose 5 mg/kg, route oral; conditions: in vivo
Rattus norvegicus [15] = assay: AUC (0 to infinity) in Sprague-Dawley rat assessed as 3-(2,5-Dichloro-4-((3-(4-cyclopropyl-1,2,3,4-tetrahydroquinoxaline-1-carbonyl)pyridin-4-yl)oxy)phenyl)propanoic acid level at 5 mg/kg, po by LC-MS/MS method; assay type: ADME, organism-based, Plasma; set-up: time infinity, dose 5 mg/kg, route oral; conditions: in vivo
[16] = Tmax in Sprague-Dawley rat at 5 mg/kg, po by LC-MS/MS method; assay type: ADME, organism-based; set-up: dose 5 mg/kg, route oral; conditions: in vivo
[17] = Drug level in ICR mouse plasma at 150 mg/kg, po after 3.5 hrs by LC-MS/MS method; assay type: ADME, organism-based; set-up: dose 150 mg/kg, route oral
[18] = Drug metabolism in ICR mouse gall bladder assessed as 3-(2,5-Dichloro-4-((3-(4-cyclopropyl-1,2,3,4-tetrahydroquinoxaline-1-carbonyl)pyridin-4-yl)oxy)phenyl)propanoic acid level at 150 mg/kg, po after 4 hrs by LC-MS/MS method; assay type: ADME, organism-based; set-up: dose 150 mg/kg, route oral; conditions: in vivo
Rattus norvegicus [19] = assay: Drug level in Sprague-Dawley rat at 20 mg/kg, po after 15 mins to 24 hrs by LC-MS/MS method; assay type: ADME, organism-based; set-up: dose 20 mg/kg, route oral; conditions: in vivo
[20] = Drug level in ICR mouse plasma at 150 mg/kg, po after 2.5 hrs by LC-MS/MS method; assay type: ADME, organism-based; set-up: dose 150 mg/kg, route oral
[21] = Drug level in ICR mouse plasma at 150 mg/kg, po after 2 hrs by LC-MS/MS method; assay type: ADME, organism-based; set-up: dose 150 mg/kg, route oral
[22] = Drug level in ICR mouse gall bladder at 150 mg/kg, po after 3.5 hrs by LC-MS/MS method; assay type: ADME, organism-based; set-up: dose 150 mg/kg, route oral; conditions: in vivo
[23] = Drug level in ICR mouse bile at 150 mg/kg, po after 2 hrs by LC-MS/MS method; assay type: ADME, organism-based; set-up: dose 150 mg/kg, route oral; conditions: read-out: Drug uptake
Rattus norvegicus [24] = assay: Drug metabolism in Sprague-Dawley rat assessed as 3-(2,5-Dichloro-4-((3-(4-cyclopropyl-1,2,3,4-tetrahydroquinoxaline-1-carbonyl)pyridin-4-yl)oxy)phenyl)propanoic acid level at 20 mg/kg, po after 15 mins to 24 hrs by LC-MS/MS method; assay type: ADME, organism-based; set-up: dose 20 mg/kg, route oral; conditions: in vivo
[25] = Drug level in ICR mouse bile at 150 mg/kg, po after 3.5 hrs by LC-MS/MS method; assay type: ADME, organism-based; set-up: dose 150 mg/kg, route oral; conditions: read-out: Drug uptake
[26] = Drug level in ICR mouse gall bladder at 150 mg/kg, po after 2 hrs by LC-MS/MS method; assay type: ADME, organism-based; set-up: dose 150 mg/kg, route oral; conditions: in vivo
[27] = Drug level in ICR mouse gall bladder at 150 mg/kg, po after 4 hrs by LC-MS/MS method; assay type: ADME, organism-based; set-up: dose 150 mg/kg, route oral; conditions: in vivo
[28] = Drug level in ICR mouse gall bladder at 150 mg/kg, po after 2.5 hrs by LC-MS/MS method; assay type: ADME, organism-based; set-up: dose 150 mg/kg, route oral; conditions: in vivo
[29] = Drug level in ICR mouse bile at 150 mg/kg, po after 2.5 hrs by LC-MS/MS method; assay type: ADME, organism-based; set-up: dose 150 mg/kg, route oral; conditions: read-out: Drug uptake

SMILES: O=C(c1cnccc1Oc1cc(Cl)ccc1Cl)N1CCN(C2CC2)c2ccccc21
recovery at 20 µM (in vitro [1]): 69.4%
recovery at 20 µM (in vitro [2]): 46.8%
Papp B→A at 20 µM (in vitro [3]): 5.58 ×10⁻⁶ cm/s
Papp A→B at 20 µM (in vitro [4]): 6.75 ×10⁻⁶ cm/s

t1/2 (Rattus norvegicus [5]): 1.77 h
Cmax (Rattus norvegicus [6]): 15.5 ng/mL
AUCt (Rattus norvegicus [7]): 84.9 ng·h/mL
half-life [8]: 1.56 h
MRT (Rattus norvegicus [9]): 5.47 h
Cmax [10]: 13.5 ng/mL
AUC(0-inf) [11]: 39.7 ng·h/mL
MRT [12]: 2.37 h
AUC(0-t) [13]: 23.9 ng·h/mL
Tmax (Rattus norvegicus [14]): 3.5 h
AUC (Rattus norvegicus [15]): 241 ng·h/mL
Tmax [16]: 0.44 h
SMILES: O=C(O)CNC(=O)CCc1cc(Cl)c(Oc2ccncc2C(=O)N2CCN(C3CC3)c3ccccc32)cc1Cl

concentration at 3.5 h [17]: 2.9 nM
recovery at 20 µM (in vitro [1]): 91.2%
Drug metabolism [18]: metabolite_notdetected
recovery at 20 µM (in vitro [2]): 99.5%
Drug uptake (Rattus norvegicus [19]): < 3 ng/mL
Papp B→A at 20 µM (in vitro [3]): 2.24 ×10⁻⁶ cm/s
concentration at 2.5 h [20]: 6.9 nM
concentration at 2 h [21]: 4.4 nM
Drug uptake [22]: Not Active
concentration at 2 h [23]: 3.6 nM
Drug metabolism (Rattus norvegicus [24]): metabolite_notdetected
Papp A→B at 20 µM (in vitro [4]): 0.04 ×10⁻⁶ cm/s
concentration at 3.5 h [25]: 3.8 nM
Drug uptake [26]: Not Active
Drug uptake [27]: < 3 ng
Drug uptake [28]: Not Active
concentration at 2.5 h [29]: 3.5 nM
SMILES: O=C(CCc1cc(Cl)c(Oc2ccncc2C(=O)N2CCN(C3CC3)c3ccccc32)cc1Cl)NCCOCCOCCOCCOCCOCCOCCOCCOCCNC(=O)CCc1cc(Cl)c(Oc2ccncc2C(=O)N2CCN(C3CC3)c3ccccc32)cc1Cl

recovery at 20 µM (in vitro [1]): 95.8%
recovery at 20 µM (in vitro [2]): 101%
Papp B→A at 20 µM (in vitro [3]): 15.8 ×10⁻⁶ cm/s
Papp A→B at 20 µM (in vitro [4]): 0.1 ×10⁻⁶ cm/s
SMILES: C[C@H]1O[C@@H](O[C@H]2[C@@H](O)C[C@H](O[C@H]3[C@@H](O)C[C@H](O[C@H]4CC[C@@]5(C)[C@H](CC[C@@H]6[C@@H]5C[C@@H](O)[C@]5(C)[C@@H](C7=CC(=O)OC7)CC[C@]65O)C4)O[C@@H]3C)O[C@@H]2C)C[C@H](O)[C@@H]1O [DIGOXIN]
